Reference: patent US11998610B2, “Conjugates and methods of using the same” (Flagship Pioneering Innovations V, Inc., priority 2018, dated 2024)
Non-standard residues stand in square brackets, D forms with d. Residues, ends and D or L forms follow the SMILES beside them. *: point of attachment. Octanoyl = CCCCCCCC(=O)*

Columns and labels:
[1] = In vitro Colonic Material Stability Assay; assay type: in vitro ADME; details: colonic material slurry, anaerobic, 1 or 10 μM, 24 h
Protocol: Assay 3 In vitro Colonic Material Stability Assay. This assay was used to assess the stability of an acylated active agent in a large intestine. All experiments were performed in an anaerobic chamber containing 90% nitrogen, 5% hydrogen and 5% carbon dioxide. Colonic material was resuspended as a slurry (15% w/v final concentration) in pre-reduced, anaerobically sterilized dilution blanks (Anaerobe Systems AS-908). The colonic material was then inoculated into 96 well plates containing YCFAC media (Anaerobe Systems AS-680) or other suitable media (6.7 μL slurry into 1 mL total media). Compounds or groups of compounds were added to each individual well to reach a final analyte concentration of 1 or 10 μM, and the material was mixed by pipetting. Sample was removed after set timepoints (0, 120, 240, 480, 1440, 2880 minutes after initiation of the assay), quenched with acetonitrile containing internal standard, and analyzed by LC/MS.

E. coli BL21(DE3) = assay: Cell-based assay with ClbP with LCMS, ClbP negative strain; details: 10 μM compound, 37° C., 20 h
Protocol: (§1) This example is representative of the methods described in Example 97. ClbP was tested for its ability to activate compounds. […] Each of these three strains was struck out onto an appropriate solid media such as LB agar or BHI agar. The bacteria were then grown aerobically overnight at 37° C.
(§2) A single colony was isolated from the plate and inoculated into 10 mL LB. The liquid cultures were grown overnight aerobically at 37° C. with rocking on a nutator.
(§3) The saturated E. coli cultures were transferred into a biosafety cabinet. 5 μL of each culture was inoculated into fresh LB broth (200 μL total, 1:40 (v/v) dilution of the overnight culture), and the tested compound was added to a final concentration of 10 μM. To establish the native stability of the compound in media alone, the compound was also added to uninoculated media at a final concentration of 10 μM. Each compound was tested in duplicate with each strain or the media-alone incubation. The plate was sealed and incubated aerobically on a nutator at 37° C. for 20 h.
(§4) After 20 h, the reactions were stopped by addition of 200 μL acetonitrile. The contents of each well were mixed, and then the plate was centrifuged (4,000 rpm, 10 min). The plate was diluted serially to a final dilution of 1:100 first with Acetonitrile (10× dilution) and then with (4:1) Mobile Phase A-20 mM ammonium formate+water:Mobile Phase B-Isopropanol:Methanol:Water (4:4:2)+20 mM ammonium formate (10× dilution).
(§5) The amount of each remaining parent compound in each incubation was quantified by LC-MS analysis, with multiple-reaction monitoring targeting transitions specific to each parent compound.
(§6) The amount of compound present in the media-alone condition was normalized to 100%. The amount of parent compound present in the reaction with the ClbP-encoding E. coli (E. coli CFT073 ATCC 700928 and/or E. coli Nissle 1917) was compared to the amount present in the media-alone and expressed as a percent. Likewise, the amount of parent compound present in the reaction with the negative control E. coli BL21(DE3) was compared to the amount present in the media-alone and expressed as a percent.
(§7) In an ideal case, the amount of residual starting material in the reaction(s) with ClbP-encoding E. coli was <25% of the amount in the E. coli BL21(DE3) and media-alone conditions. In an acceptable case, the amount of residual starting material in the reaction(s) with ClbP-encoding E. coli was 25-75% of the amount in the E. coli BL21(DE3) and media-alone conditions. In a non-preferred case, the amount of residual starting material in the reaction(s) with ClbP-encoding E. coli was >75% of the amount in the E. coli BL21(DE3) and media-alone conditions.

[2] = tested on: E. coli CFT073 ATCC 700928 and/or E. coli Nissle 1917; assay: Cell-based assay with ClbP with LCMS, ClbP positive strain; details: for % Remaining in ClbP Positve Relative to Media-Only: ClbP-encoding E. coli, 10 μM compound, 37° C., 20 h; for Difference between the ClbP Positive and ClbP Negative release profiles: conclusion from Table 4
Protocol: as §1, §2, §3, §4, §5, §6, §7

CCCCCCCCCCCCNC(=O)N[C@H](CC(N)=O)C(=O)N[C@@H](C)C(=O)OC [Example 60, Methyl (dodecylcarbamoyl)-D-asparaginyl-L-alaninate]
Assay 3 (% Remaining at 24 h) [1]: C (>75% of the tested compound remaining)
% Remaining in ClbP Negative Relative to Media-Only (E. coli BL21(DE3)): + (between 25-75% compound remaining in the 20 μM WT ClbP reaction relative to the no-enzyme control)
% Remaining in ClbP Positve Relative to Media-Only [2]: + (between 25-75% compound remaining in the 20 μM WT ClbP reaction relative to the no-enzyme control)

COC(=O)[C@H](C)NC(=O)[C@@H](CC(N)=O)NC(=O)c1cn(C2CC2)c2cc(N3CCNCC3)c(F)cc2c1=O [Example 19, Methyl (1-cyclopropyl-6-fluoro-4-oxo-7-(piperazin-1-yl)-1,4-dihydroquinoline-3-carbonyl)-D-asparaginyl-L-alaninate]
Assay 3 (% Remaining at 24 h) [1]: A (<25% of the tested compound remaining)
% Remaining in ClbP Negative Relative to Media-Only (E. coli BL21(DE3)): − (>75% compound remaining in the 20 μM WT ClbP reaction relative to the no-enzyme control)
% Remaining in ClbP Positve Relative to Media-Only [2]: + (between 25-75% compound remaining in the 20 μM WT ClbP reaction relative to the no-enzyme control)

CCCC(=O)N[C@H](CC(N)=O)C(=O)N[C@@H](C)CCC(=O)Oc1ccc2nc3c(c(CC)c2c1)Cn1c-3cc2c(c1=O)COC(=O)[C@]2(O)CC [Example 58, (S)-4,11-diethyl-4-hydroxy-3,14-dioxo-3,4,12,14-tetrahydro-1H-pyrano[3′,4′:6,7]indolizino[1,2-b]quinolin-9-yl (S)-4-((R)-4-amino-2-butyramido-4-oxobutanamido)pentanoate]
% Remaining in ClbP Negative Relative to Media-Only (E. coli BL21(DE3)): + (between 25-75% compound remaining in the 20 μM WT ClbP reaction relative to the no-enzyme control)
% Remaining in ClbP Positve Relative to Media-Only [2]: ++ (<25% compound remaining in the 20 μM WT ClbP reaction relative to the control)

CCCCCCCC(=O)N[C@H](Cc1c[nH]cn1)C(=O)N[C@@H](C)C(=O)OC [Example 54, Methyl octanoyl-D-histidyl-L-alaninate] (Octanoyl-[dH]-Ala-OMe)
% Remaining in ClbP Negative Relative to Media-Only (E. coli BL21(DE3)): + (between 25-75% compound remaining in the 20 μM WT ClbP reaction relative to the no-enzyme control)
% Remaining in ClbP Positve Relative to Media-Only [2]: + (between 25-75% compound remaining in the 20 μM WT ClbP reaction relative to the no-enzyme control)

CCCCCCCCCCCCCC(=O)N[C@H](CC(N)=O)C(=O)NCCN(C)C(=O)OC [Example 30, Methyl (R)-(2-(4-amino-4-oxo-2-tetradecanamidobutanamido)ethyl)(methyl)carbamate]
% Remaining in ClbP Negative Relative to Media-Only (E. coli BL21(DE3)): − (>75% compound remaining in the 20 μM WT ClbP reaction relative to the no-enzyme control)
% Remaining in ClbP Positve Relative to Media-Only [2]: + (between 25-75% compound remaining in the 20 μM WT ClbP reaction relative to the no-enzyme control)

CCCCCCCCCCCCCC(=O)N[C@H](CC(N)=O)C(=O)N[C@@H](C)CCC(=O)Oc1ccc2nc3c(c(CC)c2c1)Cn1c-3cc2c(c1=O)COC(=O)[C@]2(O)CC [Example 24, (S)-4,11-diethyl-4-hydroxy-3,14-dioxo-3,4,12,14-tetrahydro-1H-pyrano[3′,4′:6,7]indolizino[1,2-b]quinolin-9-yl (S)-4-((R)-4-amino-4-oxo-2-tetradecanamidobutanamido)pentanoate]
% Remaining in ClbP Negative Relative to Media-Only (E. coli BL21(DE3)): − (>75% compound remaining in the 20 μM WT ClbP reaction relative to the no-enzyme control)
% Remaining in ClbP Positve Relative to Media-Only [2]: + (between 25-75% compound remaining in the 20 μM WT ClbP reaction relative to the no-enzyme control)

CCCCCCCC(=O)N[C@H](CC(N)=O)C(=O)NCCC(C)(C)C(=O)Oc1ccc2c(C)cc(=O)oc2c1 [Example 72A, 4-methyl-2-oxo-2H-chromen-7-yl (R)-4-(4-amino-2-octanamido-4-oxobutanamido)-2,2-dimethylbutanoate]
% Remaining in ClbP Negative Relative to Media-Only (E. coli BL21(DE3)): + (between 25-75% compound remaining in the 20 μM WT ClbP reaction relative to the no-enzyme control)
% Remaining in ClbP Positve Relative to Media-Only [2]: + (between 25-75% compound remaining in the 20 μM WT ClbP reaction relative to the no-enzyme control)

CCCCCCCC(=O)N[C@H](CC(N)=O)C(=O)N[C@@H](C)CNC(=O)Oc1ccc(Br)cc1 [Example 48, 4-bromophenyl ((S)-2-((R)-4-amino-2-octanamido-4-oxobutanamido)propyl)carbamate]
% Remaining in ClbP Negative Relative to Media-Only (E. coli BL21(DE3)): + (between 25-75% compound remaining in the 20 μM WT ClbP reaction relative to the no-enzyme control)
% Remaining in ClbP Positve Relative to Media-Only [2]: + (between 25-75% compound remaining in the 20 μM WT ClbP reaction relative to the no-enzyme control)

CCCCCCCC(=O)N[C@H](CC(N)=O)C(=O)Nc1ccc(COC)cc1 [Example 44, (R)—N1-(4-(methoxymethyl)phenyl)-2-octanamidosuccinamide]
% Remaining in ClbP Negative Relative to Media-Only (E. coli BL21(DE3)): − (>75% compound remaining in the 20 μM WT ClbP reaction relative to the no-enzyme control)
% Remaining in ClbP Positve Relative to Media-Only [2]: − (>75% compound remaining in the 20 μM WT ClbP reaction relative to the no-enzyme control)

CCCCCCCC(=O)N[C@H](CC(N)=O)C(=O)NCCNC(=O)OC [Example 46, Methyl (R)-(2-(4-amino-2-octanamido-4-oxobutanamido)ethyl)carbamate]
% Remaining in ClbP Negative Relative to Media-Only (E. coli BL21(DE3)): − (>75% compound remaining in the 20 μM WT ClbP reaction relative to the no-enzyme control)
% Remaining in ClbP Positve Relative to Media-Only [2]: ++ (<25% compound remaining in the 20 μM WT ClbP reaction relative to the control)
Difference between the ClbP Positive and ClbP Negative release profiles [2]: particularly favorable difference

CCCCCCCC(=O)N[C@H](CC(N)=O)C(=O)NCCC(C)(C)C(=O)Oc1ccc2nc3c(c(CC)c2c1)Cn1c-3cc2c(c1=O)COC(=O)[C@]2(O)CC [Example 40, (S)-4,11-diethyl-4-hydroxy-3,14-dioxo-3,4,12,14-tetrahydro-1H-pyrano[3′,4′:6,7]indolizino[1,2-b]quinolin-9-yl 4-((R)-4-amino-2-octanamido-4-oxobutanamido)-2,2-dimethylbutanoate]
% Remaining in ClbP Negative Relative to Media-Only (E. coli BL21(DE3)): − (>75% compound remaining in the 20 μM WT ClbP reaction relative to the no-enzyme control)
% Remaining in ClbP Positve Relative to Media-Only [2]: + (between 25-75% compound remaining in the 20 μM WT ClbP reaction relative to the no-enzyme control)

CCCCCCNC(=O)N[C@H](CC(N)=O)C(=O)N[C@@H](C)C(=O)OC [Example 53, Methyl (hexylcarbamoyl)-D-asparaginyl-L-alaninate]
% Remaining in ClbP Negative Relative to Media-Only (E. coli BL21(DE3)): − (>75% compound remaining in the 20 μM WT ClbP reaction relative to the no-enzyme control)
% Remaining in ClbP Positve Relative to Media-Only [2]: ++ (<25% compound remaining in the 20 μM WT ClbP reaction relative to the control)
Difference between the ClbP Positive and ClbP Negative release profiles [2]: particularly favorable difference

CCCCCCCCCCCCCC(=O)N[C@H](CC(N)=O)C(=O)N[C@@H](C)CNC(=O)OC [Example 23, Methyl ((S)-2-((R)-4-amino-4-oxo-2-tetradecanamidobutanamido)propyl)carbamate]
% Remaining in ClbP Negative Relative to Media-Only (E. coli BL21(DE3)): − (>75% compound remaining in the 20 μM WT ClbP reaction relative to the no-enzyme control)
% Remaining in ClbP Positve Relative to Media-Only [2]: + (between 25-75% compound remaining in the 20 μM WT ClbP reaction relative to the no-enzyme control)

CCCCCCCCCCCCCC(=O)N[C@H](CC(N)=O)C(=O)NCCN(C)C(=O)Oc1ccc(Br)cc1 [Example 31, 4-bromophenyl (R)-(2-(4-amino-4-oxo-2-tetradecanamidobutanamido)ethyl)(methyl)carbamate]
% Remaining in ClbP Negative Relative to Media-Only (E. coli BL21(DE3)): − (>75% compound remaining in the 20 μM WT ClbP reaction relative to the no-enzyme control)
% Remaining in ClbP Positve Relative to Media-Only [2]: − (>75% compound remaining in the 20 μM WT ClbP reaction relative to the no-enzyme control)
